Activity calls are given as the source filed them.
Legend:
[1] = target: Voltage-dependent T-type calcium channel subunit alpha-1H (Homo sapiens, UniProt O95180); assay type: functional;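 also: channel activity triggered by adding a high calcium stimulation buffer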
[2] = microbe, parasite or virus in culture; assay type: functional; conditions: Mycobacterium tuberculosis
[3] = cytotoxicity toward NIH3T3 fibroblasts, dose response, counter-screen, cell-based, ATP luminescence, mouse fibroblasts (AID 2010); assay type: functional;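 also: cells exposed to compound for about 90 hours before reading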
[4] = inhibitors of intracellular T. cruzi replication, confirmation, NIH3T3 host cells, beta-gal luminescence (AID 2044); assay type: functional, cell-based;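 also: intracellular parasites grown in NIH/3T3 mouse fibroblasts as host cells; luminescent beta-galactosidase reporter signal from transgenic T. cruzi replicating inside host cells; inhibitors lower the luminescence signal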
[5] = target: T1, Ubiquitin-conjugating enzyme E2 N (Homo sapiens, UniProt P61088); assay type: functional;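 also: Dose-response confirmation in a TR-FRET assay detecting UBC13-driven polyubiquitin chain formation, inhibition measured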
T1 sequence (P61088 whole entry): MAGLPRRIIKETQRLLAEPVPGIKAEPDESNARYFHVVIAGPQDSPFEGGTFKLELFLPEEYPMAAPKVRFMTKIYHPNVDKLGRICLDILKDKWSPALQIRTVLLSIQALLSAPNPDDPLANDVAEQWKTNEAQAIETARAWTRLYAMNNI

[6] = target: Cytochrome P450 2C9 (Homo sapiens, UniProt P11712)
Cytochrome P450 2C9, sequence (P11712 whole entry): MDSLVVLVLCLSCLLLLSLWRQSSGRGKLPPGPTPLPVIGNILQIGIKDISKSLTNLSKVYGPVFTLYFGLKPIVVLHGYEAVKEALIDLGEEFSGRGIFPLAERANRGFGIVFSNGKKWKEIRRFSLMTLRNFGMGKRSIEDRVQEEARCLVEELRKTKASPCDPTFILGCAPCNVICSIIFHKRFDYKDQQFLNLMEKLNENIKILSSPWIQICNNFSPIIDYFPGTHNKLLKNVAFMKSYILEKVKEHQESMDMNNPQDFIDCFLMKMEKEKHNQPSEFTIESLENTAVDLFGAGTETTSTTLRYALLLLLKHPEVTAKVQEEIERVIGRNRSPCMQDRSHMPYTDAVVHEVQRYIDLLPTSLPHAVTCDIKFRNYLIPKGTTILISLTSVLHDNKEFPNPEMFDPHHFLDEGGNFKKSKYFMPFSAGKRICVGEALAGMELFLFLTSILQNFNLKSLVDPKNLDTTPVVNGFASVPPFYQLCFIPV

[7] = cells; assay type: functional, cell-based
[8] = cells; assay type: functional, cell-based; remark: listed apart in the source
[9] = target: T2, High affinity choline transporter 1 (Homo sapiens, UniProt Q9GZV3); assay: CHT inhibitors, dose response, cell-based, 5-point CRC, membrane potential dye (AID 504840); assay type: functional
T2 sequence (Q9GZV3 whole entry): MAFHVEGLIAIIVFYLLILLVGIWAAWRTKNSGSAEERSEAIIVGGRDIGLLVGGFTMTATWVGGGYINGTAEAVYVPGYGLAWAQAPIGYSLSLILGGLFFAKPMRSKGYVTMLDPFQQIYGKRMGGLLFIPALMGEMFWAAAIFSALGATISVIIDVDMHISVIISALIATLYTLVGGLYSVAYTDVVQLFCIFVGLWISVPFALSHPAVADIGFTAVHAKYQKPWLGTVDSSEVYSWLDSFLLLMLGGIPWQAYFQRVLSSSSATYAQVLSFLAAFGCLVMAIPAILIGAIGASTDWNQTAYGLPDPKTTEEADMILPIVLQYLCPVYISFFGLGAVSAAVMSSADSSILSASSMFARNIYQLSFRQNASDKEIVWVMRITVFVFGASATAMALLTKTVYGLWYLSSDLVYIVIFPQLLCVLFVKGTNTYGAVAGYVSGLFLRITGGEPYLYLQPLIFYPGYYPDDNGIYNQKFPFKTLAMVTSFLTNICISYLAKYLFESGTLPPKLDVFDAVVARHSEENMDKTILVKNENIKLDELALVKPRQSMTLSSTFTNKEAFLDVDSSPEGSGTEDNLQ

[10] = target: T3, Polyadenylate-binding protein 1 (Homo sapiens, UniProt P11940); assay: PABP1 MLLE–PAM2 binding inhibitor potency, dose response, biochemical, fluorescence polarization, FITC-PAM2 peptide (AID 602259); assay type: functional; conditions: read-out: IC50_Mean
T3 sequence (P11940 whole entry): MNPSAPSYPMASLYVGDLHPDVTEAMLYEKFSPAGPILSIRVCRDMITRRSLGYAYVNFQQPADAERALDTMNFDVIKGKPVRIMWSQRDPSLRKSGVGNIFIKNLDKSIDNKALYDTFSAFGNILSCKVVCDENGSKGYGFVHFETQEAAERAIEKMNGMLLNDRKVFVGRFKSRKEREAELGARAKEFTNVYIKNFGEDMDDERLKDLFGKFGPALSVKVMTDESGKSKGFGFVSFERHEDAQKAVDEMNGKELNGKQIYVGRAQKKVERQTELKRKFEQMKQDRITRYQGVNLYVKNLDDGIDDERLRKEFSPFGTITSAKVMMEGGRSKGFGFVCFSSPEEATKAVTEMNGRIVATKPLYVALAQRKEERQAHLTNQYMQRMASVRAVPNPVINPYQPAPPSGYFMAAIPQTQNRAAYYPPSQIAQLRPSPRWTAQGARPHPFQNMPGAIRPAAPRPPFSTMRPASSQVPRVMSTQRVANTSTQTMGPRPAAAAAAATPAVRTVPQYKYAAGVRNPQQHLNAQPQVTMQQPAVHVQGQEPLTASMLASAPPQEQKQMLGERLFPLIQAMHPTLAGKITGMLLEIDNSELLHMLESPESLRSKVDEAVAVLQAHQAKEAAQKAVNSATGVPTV

[11] = target: T3, Polyadenylate-binding protein 1; assay: PABP1 MLLE–PAM2 interaction inhibitors, dose response, miRNA deadenylation inhibitor project, biochemical, fluorescence polarization, Cy5-PAM2 peptide, secondary (AID 602260); assay type: functional; conditions: read-out: IC50_Mean
[12] = Luminescence Cell-Based Dose Retest to Confirm Inhibitors of Cancer Stem Cells. [Related pubchem assays (depositor defined):AID2717, AID2721]; assay type: functional; conditions: Homo sapiens
[13] = growth suppression of PTEN-null colon cells, dose response, cell-based, HCT116 PTEN knockout (AID 1047); assay type: functional;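 also: HCT116 colon tumor cells with PTEN knocked out; cells exposed to compound for 60 hours before readout; potency for loss of cell viability measured by luminescence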
[14] = growth suppression of beta-catenin-knockout colon cells, dose response, cell-based, HCT116, human colon tumor (AID 1045); assay type: functional;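 also: HCT116 colon tumor cells with beta catenin knocked out; cells exposed to compound for 60 hours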
[15] = target: T4, Replicative DNA helicase DnaB (Mycobacterium tuberculosis, UniProt P9WMR3); assay: DnaB intein splicing inhibitors, dose response, biochemical, cell-free fluorescence (AID 449749); assay type: functional
T4 sequence (P9WMR3 whole entry): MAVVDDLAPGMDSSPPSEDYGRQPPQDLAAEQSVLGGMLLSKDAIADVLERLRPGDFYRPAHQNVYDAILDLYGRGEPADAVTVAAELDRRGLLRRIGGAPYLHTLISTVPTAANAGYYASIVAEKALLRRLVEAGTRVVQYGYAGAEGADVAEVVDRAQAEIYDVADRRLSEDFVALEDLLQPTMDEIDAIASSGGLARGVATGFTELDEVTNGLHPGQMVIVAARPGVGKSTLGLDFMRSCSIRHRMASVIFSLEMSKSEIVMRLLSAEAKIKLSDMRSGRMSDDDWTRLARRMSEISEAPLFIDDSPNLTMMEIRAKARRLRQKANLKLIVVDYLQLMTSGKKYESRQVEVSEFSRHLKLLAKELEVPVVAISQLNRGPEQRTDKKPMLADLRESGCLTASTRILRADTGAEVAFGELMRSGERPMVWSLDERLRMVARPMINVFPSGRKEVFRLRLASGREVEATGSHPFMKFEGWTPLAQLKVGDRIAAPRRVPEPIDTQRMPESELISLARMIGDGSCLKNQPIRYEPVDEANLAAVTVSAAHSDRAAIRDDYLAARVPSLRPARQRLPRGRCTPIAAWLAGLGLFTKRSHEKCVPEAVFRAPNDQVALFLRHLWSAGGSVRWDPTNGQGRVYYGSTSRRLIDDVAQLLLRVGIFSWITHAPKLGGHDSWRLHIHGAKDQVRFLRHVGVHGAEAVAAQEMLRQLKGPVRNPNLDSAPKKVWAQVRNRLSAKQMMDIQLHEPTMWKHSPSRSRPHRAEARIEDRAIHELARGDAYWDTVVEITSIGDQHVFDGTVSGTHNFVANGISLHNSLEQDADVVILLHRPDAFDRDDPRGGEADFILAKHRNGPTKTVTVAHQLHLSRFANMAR

[16] = target: T5, Protein RecA (Mycobacterium tuberculosis, UniProt P9WHJ3); assay: Fluorescence Cell-Free Homogeneous Dose Retest to Identify Inhibitors of RecA-Intein Splicing Activity. [Related pubchem assays (depositor defined):AID2097, AID2223, AID489010, AID492950]; assay type: functional
T5 sequence (P9WHJ3 whole entry): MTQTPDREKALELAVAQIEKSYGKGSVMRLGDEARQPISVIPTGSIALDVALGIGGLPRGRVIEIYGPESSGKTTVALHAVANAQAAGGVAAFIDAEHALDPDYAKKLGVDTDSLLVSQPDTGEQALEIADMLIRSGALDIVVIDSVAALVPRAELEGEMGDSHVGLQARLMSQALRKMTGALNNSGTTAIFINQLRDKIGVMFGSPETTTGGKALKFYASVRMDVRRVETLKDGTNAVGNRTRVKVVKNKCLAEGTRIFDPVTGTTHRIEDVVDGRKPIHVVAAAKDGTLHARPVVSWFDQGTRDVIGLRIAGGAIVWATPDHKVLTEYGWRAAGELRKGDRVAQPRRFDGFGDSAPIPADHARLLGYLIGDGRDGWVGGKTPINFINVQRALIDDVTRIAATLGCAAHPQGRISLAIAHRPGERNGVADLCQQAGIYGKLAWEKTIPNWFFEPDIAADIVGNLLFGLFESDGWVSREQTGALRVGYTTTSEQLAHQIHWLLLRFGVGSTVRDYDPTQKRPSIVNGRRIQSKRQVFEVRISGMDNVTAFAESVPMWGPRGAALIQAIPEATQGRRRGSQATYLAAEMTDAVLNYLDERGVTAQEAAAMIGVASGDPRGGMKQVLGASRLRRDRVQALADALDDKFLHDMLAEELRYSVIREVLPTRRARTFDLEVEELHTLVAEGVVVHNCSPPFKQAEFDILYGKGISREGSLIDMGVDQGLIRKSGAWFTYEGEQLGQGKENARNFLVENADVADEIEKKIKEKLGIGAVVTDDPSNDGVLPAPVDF

[17] = ZM109 Env clade C HIV-1 fusion inhibitors, dose response, HeLa effector, CEM target cells, luciferase, cherry-pick (AID 652058); assay type: functional, cell-based
[18] = inhibitors of HIV Env-driven cell fusion, dose response, cherry-pick (AID 652057); assay type: functional, cell-based
[19] = inhibitors of clade B AD8 Env fusion, dose response, cell-based, cherry-pick (AID 652062); assay type: functional;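 also: luciferase signal from cell-cell fusion driven by HIV-1 clade B AD8 Env; potency is for inhibitors of fusion seen as a drop in luminescence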
[20] = target: Cytochrome P450 3A4 (Homo sapiens, UniProt P08684);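 also: CYP3A4 tested as one member of a cytochrome P450 panel screen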
Cytochrome P450 3A4, sequence (P08684 whole entry): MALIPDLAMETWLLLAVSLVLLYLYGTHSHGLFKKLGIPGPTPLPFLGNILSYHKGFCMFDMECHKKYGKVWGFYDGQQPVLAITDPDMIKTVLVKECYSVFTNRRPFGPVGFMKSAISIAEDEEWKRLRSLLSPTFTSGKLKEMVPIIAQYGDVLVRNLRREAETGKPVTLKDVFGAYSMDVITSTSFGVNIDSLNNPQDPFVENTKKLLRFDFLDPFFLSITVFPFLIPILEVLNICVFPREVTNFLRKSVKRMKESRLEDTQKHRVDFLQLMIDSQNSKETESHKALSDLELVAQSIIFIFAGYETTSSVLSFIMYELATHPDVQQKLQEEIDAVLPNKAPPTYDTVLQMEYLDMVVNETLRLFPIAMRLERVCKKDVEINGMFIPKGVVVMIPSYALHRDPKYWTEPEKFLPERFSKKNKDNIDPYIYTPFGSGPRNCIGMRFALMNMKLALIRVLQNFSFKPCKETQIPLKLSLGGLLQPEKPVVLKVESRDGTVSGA

Voltage-dependent T-type calcium channel subunit alpha-1H, sequence (O95180 whole entry): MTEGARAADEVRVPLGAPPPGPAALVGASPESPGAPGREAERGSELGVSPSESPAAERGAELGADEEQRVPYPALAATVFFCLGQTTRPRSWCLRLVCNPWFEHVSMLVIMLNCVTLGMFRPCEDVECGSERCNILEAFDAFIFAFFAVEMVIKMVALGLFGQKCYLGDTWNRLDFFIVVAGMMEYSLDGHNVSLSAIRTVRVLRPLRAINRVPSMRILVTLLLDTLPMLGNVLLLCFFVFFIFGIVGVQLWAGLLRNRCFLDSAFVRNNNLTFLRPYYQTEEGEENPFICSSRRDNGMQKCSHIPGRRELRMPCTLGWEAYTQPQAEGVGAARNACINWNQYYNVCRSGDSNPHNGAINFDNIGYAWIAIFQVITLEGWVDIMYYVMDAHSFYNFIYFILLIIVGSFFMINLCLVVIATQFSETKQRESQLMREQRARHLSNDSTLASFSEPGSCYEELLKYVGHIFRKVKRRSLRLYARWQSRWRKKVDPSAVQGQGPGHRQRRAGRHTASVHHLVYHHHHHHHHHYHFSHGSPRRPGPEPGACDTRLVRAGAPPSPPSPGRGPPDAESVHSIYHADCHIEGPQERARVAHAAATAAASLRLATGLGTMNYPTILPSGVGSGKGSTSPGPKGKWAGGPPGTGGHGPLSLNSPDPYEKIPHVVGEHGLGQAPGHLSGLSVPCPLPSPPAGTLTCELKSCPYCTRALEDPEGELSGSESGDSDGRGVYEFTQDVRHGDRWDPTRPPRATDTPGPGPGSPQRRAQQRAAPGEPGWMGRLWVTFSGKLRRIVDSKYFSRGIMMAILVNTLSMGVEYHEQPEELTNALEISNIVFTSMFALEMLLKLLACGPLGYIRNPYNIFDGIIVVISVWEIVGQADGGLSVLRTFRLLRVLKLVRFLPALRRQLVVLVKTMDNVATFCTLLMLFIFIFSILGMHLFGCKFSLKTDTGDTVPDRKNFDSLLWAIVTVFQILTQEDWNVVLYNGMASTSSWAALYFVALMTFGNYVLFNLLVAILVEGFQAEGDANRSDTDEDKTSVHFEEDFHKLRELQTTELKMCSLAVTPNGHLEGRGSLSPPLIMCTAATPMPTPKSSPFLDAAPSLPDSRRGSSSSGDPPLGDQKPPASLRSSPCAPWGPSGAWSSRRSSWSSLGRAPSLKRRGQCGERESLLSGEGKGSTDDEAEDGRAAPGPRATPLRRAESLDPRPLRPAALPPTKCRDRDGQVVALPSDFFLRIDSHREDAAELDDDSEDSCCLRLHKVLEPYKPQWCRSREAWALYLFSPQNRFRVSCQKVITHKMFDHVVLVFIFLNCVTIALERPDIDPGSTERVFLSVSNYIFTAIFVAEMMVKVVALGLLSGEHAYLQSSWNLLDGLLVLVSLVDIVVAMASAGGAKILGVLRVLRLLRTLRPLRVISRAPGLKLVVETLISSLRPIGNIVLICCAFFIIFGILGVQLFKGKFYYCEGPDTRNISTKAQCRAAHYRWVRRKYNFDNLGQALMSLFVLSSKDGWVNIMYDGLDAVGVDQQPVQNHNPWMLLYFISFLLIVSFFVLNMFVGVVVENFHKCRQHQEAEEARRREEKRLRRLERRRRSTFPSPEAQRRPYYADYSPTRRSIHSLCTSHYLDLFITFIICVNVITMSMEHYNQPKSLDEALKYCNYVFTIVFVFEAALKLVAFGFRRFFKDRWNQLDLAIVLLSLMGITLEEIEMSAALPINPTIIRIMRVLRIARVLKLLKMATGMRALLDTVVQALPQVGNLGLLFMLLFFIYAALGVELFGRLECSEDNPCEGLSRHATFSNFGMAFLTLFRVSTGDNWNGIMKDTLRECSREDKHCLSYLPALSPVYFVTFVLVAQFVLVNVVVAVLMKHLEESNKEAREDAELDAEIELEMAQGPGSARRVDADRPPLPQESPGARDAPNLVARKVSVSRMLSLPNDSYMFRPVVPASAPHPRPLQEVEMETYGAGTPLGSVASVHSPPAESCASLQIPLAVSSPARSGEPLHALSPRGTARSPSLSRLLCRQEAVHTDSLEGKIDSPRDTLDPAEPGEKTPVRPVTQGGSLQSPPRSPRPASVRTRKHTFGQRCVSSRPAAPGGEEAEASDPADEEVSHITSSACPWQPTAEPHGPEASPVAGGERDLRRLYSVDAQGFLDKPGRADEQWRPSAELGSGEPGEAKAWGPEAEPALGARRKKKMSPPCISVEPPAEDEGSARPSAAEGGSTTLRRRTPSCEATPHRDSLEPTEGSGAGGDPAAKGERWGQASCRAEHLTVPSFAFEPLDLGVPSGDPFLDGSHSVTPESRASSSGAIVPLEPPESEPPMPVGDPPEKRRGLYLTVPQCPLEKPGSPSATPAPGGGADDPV

SMILES: CCC(c1nnnn1C(C)(C)C)N1CCN(c2cc(Cl)ccc2C)CC1 (stereo unspecified)
- EC50 [1]: 5.94 µM (active)

SMILES: COc1ccccc1N1CCN(C(c2ccccc2Cl)c2nnnn2C(C)(C)C)CC1 (stereo unspecified)
- EC50 [1]: 11.7 µM (active)

SMILES: COc1cccc2sc3ccc(C#CC4(N)CCCCC4)cc3c(=O)c12
- CC50 [2]: 20.1 µM (active)

SMILES: COc1cc2ccccc2cc1C(=O)Nc1ccc(Cc2ccncc2)cc1
- EC50 [3]: 8.08 µM (active)
- CC50 [2]: 22 µM (active)
- EC50 [4]: 1.99 µM (active)

SMILES: Cc1ccc(-c2nnc(CSc3nnc(COc4ccccc4)n3-c3ccccc3)o2)cc1
- EC50 [1]: 3.32 µM (active)

SMILES: CC(C)[C@@H]1CN=C(N)N1C[C@@H]1CCCN1C[C@H](C)N1C[C@@H](Cc2ccccc2)N(CCc2ccc(Cl)c(Cl)c2)C1=N
- IC50 [5]: > 20 µM (inactive)

SMILES: CCN(CC)c1ccc(/C=C2/C(=O)NC(=O)N(CC3CCCO3)C2=O)cc1 (stereo unspecified)
- AC50 [6]: inconclusive

SMILES: Cc1snc(SCC(=O)NN=C(N)COc2cccc(C(F)(F)F)c2)c1C#N
- EC50 [7]: > 350 µM (not active)
- EC50 [8]: > 350 µM (not active)

SMILES: CC1CCN(S(=O)(=O)c2ccc3c(c2)c(=O)c(C(=O)NC2CCCC2)cn3C)CC1
- IC50 [9]: 12 µM (active)

SMILES: COc1ccc(Sc2nnc(Cc3ccccc3)c3ccccc23)cc1
- IC50 [10]: > 66 µM (inactive)
- IC50 [11]: > 66 µM (inactive)

SMILES: Cc1ccc(C(c2nnnn2C(C)(C)C)N(Cc2ccco2)Cc2cccs2)cc1 (stereo unspecified)
- EC50 [1]: 6.33 µM (active)
- EC50 [3]: > 30 µM (not active)
- EC50 [4]: 2.26 µM (active)

SMILES: CCCCc1cc(-c2nnc(S)o2)c2ccccc2n1
- IC50 [9]: 13.2 µM (active)

SMILES: COc1cc(CNCCc2c[nH]c3ccccc23)ccc1OCc1ccccc1F
- AC50 [12]: 4.72 µM (active)
- EC50 [13]: 15.3 µM (active)
- EC50 [3]: > 60 µM (inconclusive)
- IC50 [5]: > 20 µM (inactive)
- EC50 [14]: 13.6 µM (active)
- EC50 [4]: 0.196 µM (active)

SMILES: Cc1ccc(S(=O)(=O)N[C@H]2COC(=O)C/C=C\[C@@H](C)COC(=O)C/C=C\[C@@H]2C)cc1
- AC50 [6]: inconclusive

SMILES: COc1cc(C(=O)N2CCN(C(=O)Cc3ccccc3)CC2)cc(OC)c1OC
- EC50 [7]: > 350 µM (not active)
- EC50 [8]: > 350 µM (not active)

SMILES: COC(=O)c1c(NC(=O)c2nc3ccccc3s2)sc2c1CCN(C(C)=O)C2
- IC50 [5]: > 20 µM (inactive)

SMILES: COc1ccc(C(CNC(=O)c2cc3c(s2)CCC(C)C3)N2CCCC2)cc1 (stereo unspecified)
- IC50 [5]: > 20 µM (inactive)

SMILES: COc1ccccc1N1CCN(CC(=O)c2c(C)[nH]c3cc(C)ccc23)CC1
- EC50 [1]: 5.63 µM (active)
- AC50 [15]: 5.47 µM (active)
- EC50 [16]: 94.2 µM (active)

SMILES: Nc1ccc(S(=O)(=O)Nc2nccs2)cc1 [SULFATHIAZOLE]
- AC50 [6]: inconclusive

SMILES: O=C(Nc1cccc(S(=O)(=O)NC2=NCCC2)c1)c1cc(Cl)ccc1[N+](=O)[O-]
- IC50 [9]: 11.8 µM (active)

SMILES: O=C(C[C@H]1C[C@@H]2c3cc(NS(=O)(=O)c4ccc(F)cc4)ccc3O[C@@H]2[C@H](CO)O1)NCc1ccc(Cl)cc1
- AC50 [17]: 5.21 µM (active)
- AC50 [18]: 1.72 µM (active)
- AC50 [19]: 4.14 µM (active)

SMILES: CCCCC(O)(CCCC)C(=O)NN(C(=O)CCl)c1ccccc1
- CC50 [2]: 12.1 µM (active)
- AC50 [15]: 15 µM (active)
- EC50 [16]: 2.45 µM (active)

SMILES: CC1CCCCN1CCNC(=O)c1ccc2c(=O)n(Cc3ccc(Cl)cc3)c(=S)[nH]c2c1 (stereo unspecified)
- IC50 [5]: > 20 µM (inactive)

SMILES: CCc1cnccc1CCC(=O)Nc1ccccc1C
- EC50 [7]: > 350 µM (not active)
- EC50 [8]: 52 µM (active)

SMILES: COc1ccc(N2C(=O)[C@@H]3C(c4cccnc4)=NO[C@@H]3C2=O)cc1
- EC50 [7]: > 350 µM (not active)
- EC50 [8]: > 350 µM (not active)

SMILES: CN1C(=O)SC(Nc2ccccc2C(=O)O)C1=O (stereo unspecified)
- IC50 [10]: > 66 µM (inactive)
- IC50 [11]: > 66 µM (inactive)

SMILES: CCCCn1c(NCc2ccc3c(c2)OCO3)nc2ccccc21
- CC50 [2]: 39.6 µM (active)

SMILES: CN1CCN(C(=S)NC(=O)c2ccc(S(=O)(=O)N3CCOCC3)cc2)CC1
- IC50 [10]: > 66 µM (inactive)
- IC50 [11]: > 66 µM (inactive)

SMILES: C[C@@H]1CN([C@@H](C)CO)C(=O)c2cccc(NS(=O)(=O)c3ccccc3)c2O[C@@H]1CN(C)Cc1ccc(Cl)c(Cl)c1
- AC50 [17]: 4.27 µM (active)
- AC50 [18]: 2.93 µM (active)
- AC50 [19]: 3.86 µM (active)

SMILES: CCc1cc2c(NCc3ccco3)ncnc2s1
- IC50 [9]: 10 µM (active)
- AC50 [20]: 25.1 µM (inconclusive)
- AC50 [19]: 32.3 µM (active)

Reference: ChEMBL document CHEMBL1201862, “PubChem BioAssay data set” (2004)
